Columns and labels:
[1] = tested on: human coronary artery smooth muscle cells; assay: Anti-proliferative activity in non-synchronized cultured human coronary artery smooth muscle cells stimulated with two percent fetal bovine serum; format: cell-based
Description: The multiple curves represent various concentrations of mycophenolic acid ranging from zero to one thousand nanomolar concentrations.
FIG. 58 illustrates, in graphical format, the anti-proliferative activity of cladribine in non-synchronized cultured human coronary artery smooth muscle cells stimulated with two percent fetal bovine serum.
The multiple curves represent various concentrations of cladribine ranging from zero to nine hundred nanomolar concentrations.

[2] = tested on: human smooth muscle cells; assay: Inhibition of human vascular cell proliferation with cladribine, PDGF-stimulated smooth muscle cells; format: cell-based
Method: To assess the ability of cladribine to prevent cell proliferation, human smooth muscle or endothelial cells (Clonetics, Walkersville, Md.) were seeded at a density of 2000 cells/cm^2 (approximately 3600 cells/well) into each well of 12-well plates and cultured with 1.5 ml of growth medium containing five percent fetal calf serum (FCS). After twenty-four hours, the growth medium was changed and fresh medium containing 10 ng/ml platelet-derived growth factor AB (PDGF AB; LIFE Technologies), as well as various concentrations of cladribine (0.001-10,000 nM) were added with triplicate wells. Medium was replaced with fresh cladribine-containing medium after three days. On day six, cells were detached by trypsinization to yield a cell suspension, lightly centrifuged to pellet and then counted manually using a Neubauer hemocytometer system. Cell viability was assessed by trypan blue exclusion.

[3] = in vivo release kinetics from rapamycin / cladribine EVA/BMA coating, porcine pharmacokinetics studies; design: species or system Yorkshire pigs; conditions: EVA/BMA basecoat with 200 microgram BMA topcoat, Bx Velocity stents
Description: The basecoat is applied to Bx Velocity® stents and implanted into Yorkshire pigs.
The basecoat is applied to BxVelocity® stents and implanted into Yorkshire pigs.

[4] = tested on: human coronary artery smooth muscle cells; assay: antiproliferative effects of PX867 on cultured human coronary artery smooth muscle cells; format: cell-based; conditions: PX867 alone, concentration of about 10^−6 (unit not given)
Description: A PI3 kinase inhibitor can affect restinosis when administered by local or systemic delivery alone or in combination with sirolimus. FIGS. 87 and 88 illustrate the antiproliferative effects of PX867 on cultured human coronary artery smooth muscle cells alone (FIG. 87) or in combination with sirolimus (FIG. 88). […] Curve 8702 illustrates the percent inhibition for various concentrations. In FIG. 88, the six curves 8802, 8804, 8806, 8808, 8810 and 8812 represent various concentrations of PX867 with various concentrations of sirolimus. […] More specifically, curve 8812 illustrates the percent inhibition for a 240 nM PX-867 concentration. […] This may be compared to curve 8804 which represents a 15 nM PX-867 concentration. As one can see, the percent inhibition increases as the concentration of sirolimus increases. Accordingly, a potent PI3 kinase inhibitor, such as PX-867, can improve the inhibition of coronary artery smooth muscle cell proliferation either as a stand alone treatment or via combination with another restenotic agent, such as sirolimus.

[5] = tested on: human coronary artery smooth muscle cell; conditions: concentrations up to 30,000.00 nanomolar (6.6 to 30,000.00 nanomolar tested)
Description: In vitro cytotoxicity tests or assays may be utilized to determine if drugs, agents and/or compounds are potentially toxic and the level of toxicity. Essentially, in vitro cytotoxicity assays determine acute necrotic effects by a drug causing direct cellular damage. The idea behind these assays is that toxic chemicals affect basic functions of cells which are common to all cells. […] There are a number of different assays that may be utilized. In the present invention, the cytotoxicity assay utilized is based upon the measurement of cellular metabolic activity. A reduction in metabolic activity is an indication of cellular damage. Tests that can measure metabolic function measure cellular ATP levels or mitochondrial activity via MTS metabolism. FIG. 69 is a graphical representation of the results of an MTS assay of Panzem®.

[6] = tested on: human coronary artery smooth muscle cells; assay: Anti-proliferative activity in synchronized cultured human coronary artery smooth muscle cells stimulated with two percent fetal bovine serum; format: cell-based; conditions: for effect on anti-proliferative rapamycin dose response curves: leftward and upward shift
Description: (§1) The multiple curves represent various concentrations of topotecan ranging from zero to three hundred nanomolar concentrations.
(§2) The multiple curves represent various concentrations of etoposide ranging from zero to eight hundred nanomolar concentrations.
The multiple curves represent various concentrations of Panzem® ranging from zero to 100 micromolar concentrations.

[7] = in vitro release of sirolimus and cilostazol from dual drug coating; format: physicochemical; conditions: single-layer sirolimus + cilostazol coating of FIG. 83
cell viability = cell viability assay; format: cell-based
Description: as §1, §2

[8] = in vivo release kinetics from rapamycin / mycophenolic acid EVA/BMA coating, porcine pharmacokinetics studies; conditions: EVA/BMA basecoat, 180 micrograms each drug, BMA topcoat 0, 100 or 200 micrograms
[9] = drug concentration in liquid formulations (liquid chromatography / HPLC assay); format: physicochemical; conditions: 4 mg/ml PEG 200 formulation
Description: In accordance with exemplary embodiments of the present invention, a series of liquid formulations were developed for the local or regional delivery of water insoluble compounds such as sirolimus and its analogs, including CCl-779, ABT-578 and everolimus, through weeping balloons and catheter injection needles. […] These liquid formulations increase the apparent solubility of the pharmacologically active but water insoluble compounds by two to four orders of magnitude as compared to the solubility limits of the compounds in water. These liquid formulations rely on the use of a very small amount of organic solvents such as Ethanol (typically less than two percent) and a larger amount of safe amphiphilic (of or relating to a molecule having a polar, water soluble group attached to a non-polar, water insoluble […]) excipients such as polyethylene glycol (PEG 200, PEG 400) and vitamin E TPGS to enhance the solubility of the compounds. These liquid formulations of highly water insoluble compounds are stable and readily flowable at room temperature. Certain excipients, such as Vitamin E TPGS and BHT may be utilized to enhance the storage stability of sirolimus compounds through their anti-oxidation properties. […]

tumor cell lines = conditions: Woo et al., J. Med Chem 2002; cited from earlier work
[10] = tested on: human coronary artery smooth muscle cell; assay: in vitro cell culture study, coronary artery smooth muscle cell proliferation (trichostatin A); format: cell-based
Description: FIG. 51 is a graph of the inhibition of coronary artery smooth muscle cells by trichostatin A in a cell culture study.

SMILES: Nc1nc(Cl)nc2c1ncn2[C@H]1C[C@H](O)[C@@H](CO)O1 [Cladribine, 2-chlorodeoxyadenosine]
- inhibition of human coronary artery smooth muscle cell proliferation ([1]; cladribine alone): completely inhibits human coronary artery smooth muscle cell proliferation
- effect on anti-proliferative rapamycin dose response curves ([1]; cladribine zero to nine hundred nanomolar added to rapamycin, leftward and upward shift): does in fact potentiate the anti-proliferative activity of rapamycin
- potency as inhibitor of smooth muscle cells relative to endothelial cells [2]: approximately twice
- in vivo elution compared with rapamycin [3]: elutes more rapidly than rapamycin

SMILES: COC[C@H]1OC(=O)/C(=C\N2CCCC2)C2=C(O)C(=O)C3=C([C@H](OC(C)=O)C[C@]4(C)C(=O)CC[C@@H]34)[C@]21C [PX867]
- inhibition of coronary artery smooth muscle cell proliferation [4]: one hundred

SMILES: COc1cc2c(cc1O)CC[C@@H]1[C@@H]2CC[C@]2(C)[C@@H](O)CC[C@@H]12 [Panzem®, 2-methoxyestradiol]
- cytotoxicity (MTS assay), cell survival [5]: do not reduce human coronary artery smooth muscle cell survival
- anti-proliferative activity ([6]; Panzem alone): extremely effective inhibitor of human coronary artery smooth muscle cell proliferation in vitro
- effect on percent inhibition by rapamycin ([6]; Panzem zero to 100 micromolar added to rapamycin): increases the percent of inhibition of rapamycin alone

SMILES: O=C1CCc2cc(OCCCCc3nnnn3C3CCCCC3)ccc2N1 [cilostazol, 6[4-(1-cyclohexyl-1H-tetrazol-5-yl)-butoxy]-3,4-dihydro-2-(1H)-quinolinone]
- in vitro release [7]: ~35%

SMILES: COc1cc([C@@H]2c3cc4c(cc3[C@@H](O[C@@H]3O[C@@H]5CO[C@@H](C)O[C@H]5[C@H](O)[C@H]3O)[C@H]3COC(=O)[C@H]23)OCO4)cc(OC)c1O [etoposide]
- effect on anti-proliferative rapamycin dose response curves ([6]; etoposide zero to eight hundred nanomolar added to rapamycin): potentiate the anti-proliferative activity of rapamycin
- cytotoxicity (cell viability; concentrations up to ten micromolar): non-cytotoxic

SMILES: COc1c(C)c2c(c(O)c1C/C=C(\C)CCC(=O)O)C(=O)OC2 [mycophenolic acid]
- effect on anti-proliferative rapamycin dose response curve ([1]; mycophenolic acid zero to one thousand nanomolar added to rapamycin, leftward and upward shift): potentiates the anti-proliferative activity of rapamycin
- in vivo elution compared with rapamycin [8]: elutes more completely over a shorter duration than the rapamycin

SMILES: CO[C@H]1C[C@@H]2CC[C@@H](C)[C@@](O)(O2)C(=O)C(=O)N2CCCC[C@H]2C(=O)O[C@H]([C@H](C)C[C@@H]2CC[C@@H](O)[C@H](OC)C2)CC(=O)[C@H](C)/C=C(\C)[C@@H](O)[C@@H](OC)C(=O)[C@H](C)C[C@H](C)/C=C/C=C/C=C/1C [rapamycin]
- concentration relative to the solubility of sirolimus in water [9]: four hundred to about one thousand

SMILES: CC[C@@]1(O)C(=O)OCc2c1cc1n(c2=O)Cc2cc3c(CN(C)C)c(O)ccc3nc2-1 [topotecan]
- effect on anti-proliferative rapamycin dose response curves ([6]; topotecan zero to three hundred nanomolar added to rapamycin): does in fact potentiate the anti-proliferative activity of rapamycin
- cytotoxicity (cell viability; concentrations up to one micromolar): non-cytotoxic

SMILES: CC(/C=C/C(=O)NO)=C\[C@@H](C)C(=O)c1ccc(N(C)C)cc1 [trichostatin A]
- anti-proliferative IC50's (tumor cell lines): low nM range
- inhibition of human coronary artery smooth muscle cell proliferation [10]: completely inhibit human coronary artery smooth muscle cell proliferation
- IC50 ([10]; read-out: anti-proliferative IC50): ~6 nM
